Measured values published in patent US20220339204A1, “METHOD AND COMPOSITION FOR AM[…] SEEKING BEHAVIOR” (priority 2018, published 2022).
“Also recorded” adds a separate entry of the source.

Test system: Sprague-Dawley rats (preference for drug-paired white chamber)
Assay: Conditioned Place Preference (CPP) conditioning and addiction with amphetamine, exploration on day 4 of withdrawal
Assay type: in vivo, male Sprague-Dawley rats
Text: A three (3) chambered CPP apparatus, measuring 75 cm×30 cm×25 cm, was employed. The single black, white and grey chambers could each be isolated from the other by a sliding door on either side of the central grey chamber. […] The floor of the white chamber was covered with shiny transparent Perspex; while the floor of the black chamber was covered with wire mesh and sawdust, creating two contrasting chambers with distinct visual and tactile cues, representing a biased paradigm. The apparatus was thoroughly cleaned with a dilute solution of disinfectant upon completion of exploration by each rat.
Twenty four (24), three (3) month old male Sprague-Dawley rats, weighing approximately 250-350 g each, were obtained from the University of the West Indies Faculty of Medical Sciences Animal House following ethical approval of the protocol by the FMS/UHWI/UWI Ethics Committee, on the Mona Campus of the University of the West Indies. Animals were housed in pairs, in a normal twelve (12) hour light: dark cycle and fed food and water ad libitum.
Phase 1: Pre-conditioning, selection and first group assignments: Animals were selected for inclusion in the experiment via pre-conditioning. They were allowed an initial twenty (20) minute exploration of the CPP apparatus, and scores of chamber entries and time counted from a video recording. Animals displaying ≥80% preference for the dark CPP chamber during pre-conditioning were selected and randomly assigned to one of two treatment groups, AMP or SAL, each containing twelve animals.
Phase 2: Conditioning: During the conditioning phase, rats assigned to the amphetamine treatment group (Group AMP) received 1 ml of amphetamine hydrochloride (sigma) dissolved in 0.9% saline, providing 5 mg/kg intraperitoneally (i.p.). Rats in Group SAL were given 1 ml of physiological saline intraperitoneally.
Conditioning consisted of 8 days of daily, group-assigned intraperitoneal injection and then immediate, individual confinement to the white, ‘aversive’ chamber for thirty (30) minutes. […]
Phase 3: Amphetamine addiction and drug withdrawal: On day 9, the addiction phase ensued, with a six (6) day period of exposure to a daily increasing amphetamine dose for the drug treated (Group AMP) animals. […] During this period, the number of entries made into each chamber and the time spent in each chamber were recorded for all rats via scores from video recordings of exploration.
All the resulting data were analyzed, using the SPSS 19 software. The mean percent time and entries into the white CPP chamber by each animal were scored from video recordings. […]

[1] = Groups AMP-S and AMP-N, amphetamine 5-7 mg/kg i.p., t-test, p<0.001, hydrochloride

CC(N)Cc1ccccc1.Cl (stereo not shown) [Amphetamine, amphetamine hydrochloride]
percent time in the drug-paired white chamber during withdrawal versus saline treated groups (AMP-S and AMP-N combined n=12 versus SAL-S and SAL-N, p<0.01): significantly increased
percent entries into the drug-paired white chamber during withdrawal versus saline treated groups (AMP-S and AMP-N versus SAL-S and SAL-N, p<0.01): significantly higher
percent entries into the drug-paired white chamber during withdrawal versus pre-conditioning [1]: significantly more entries; also recorded: significantly increased
percent time in the drug-paired white chamber during withdrawal versus pre-conditioning [1]: significantly more time; also recorded: significantly increased
